Results from US4804684A, “Symmetrical O-substituted dioximes of benzo-fused β-diketocyclo-alkylenes, the processes for their preparation and their application as drugs” (Panmedica S.A., priority 1986, dated 1989).
In brackets after ≈: the same amount, converted by molar mass. Counter-ions that a name gives are not always drawn.

Assays:
[1] = test system: platelet-rich human plasma; platelet aggregation induced by collagen; assay: Platelet aggregation (platelet-rich human plasma) induced in vitro by collagen; format: cell-based; details: platelet-rich human plasma, 300,000 platelets/cm^2, 10.0 μg/ml of collagen; read-out: IC50, inductor: collagen
Description: (§1) Study of the Effects on the Platelet Aggregation (Platelet-Rich Human Plasma) Induced in Vitro By: ADP, Collagen or Arachidonic Acid Blood samples from volunteer donors are treated and adjusted to a platelet concentration of 300,000/cm^2 and then incubated with different concentrations of the test products. Aggregation is induced by 2.0 μg/ml of ADP or by 10.0 μg/ml of collagen. The measurements are made using a Bryston-type aggregometer--or CHRONOLOG. The changes in optical density are noted and the values of the concentrations which cause a 50% inhibition are calculated.

[2] = test system: platelet-rich human plasma; platelet aggregation induced by ADP; assay: Platelet aggregation (platelet-rich human plasma) induced in vitro by ADP; format: cell-based; details: platelet-rich human plasma, 300,000 platelets/cm^2, 2.0 μg/ml of ADP; read-out: IC50, inductor: ADP
Description: as §1

[3] = test system: isolated guinea-pig intestine; assay: Antagonistic effects on isolated guinea-pig intestine (MAGNUS); details: 0.1 μg/ml
[4] = test system: platelet aggregation; assay: In vitro inhibition of platelet aggregation (BORN's method), induced by collagen or ADP; format: cell-based, animal and human; details: 100 μg/ml, aspirin as reference
Description: In vitro inhibition of platelet aggregation The inhibition of platelet aggregation is measured in vitro by BORN's method (Nature 4832, 927 (1962)), the aggregation being induced by collagen or ADP. […] The aggregation can also be induced in vitro by serotonin, arachidonic acid and norepinephrine. Furthermore, this inhibitory effect was observed on platelet-rich plasma (PRP) of animal origin and human origin.

`C=CCON=C1CC(=NOCC=C)c2ccccc2-c2ccccc21` [Example 1, 5,7 -Bis(Allyloxyimino)-6,7-Dihydro-(5H)-Dibenzo[a,c]Cycloheptene] was tested, and the IC50 [1] was 800 µg/mL (≈ 2410 µM) and the IC50 [2] was 650 µg/mL (≈ 1960 µM).
`CON=C1CC(=NOC)c2ccccc2-c2ccccc21` [Example 2, 5,7-Bis(Methoxyimino)-6,7-Dihydro-(5H)-Dibenzo[a,c]Cycloheptene] showed an IC50 [1] of 800 µg/mL (≈ 2850 µM).
For `CCON=C1CC(=NOCC)c2ccccc2-c2ccccc21` [Example 3, 5,7-Bis(Ethoxyimino)-6,7-Dihydro-(5H)-Dibenzo[a,c]Cycloheptene], the IC50 [1] was 500 µg/mL (≈ 1620 µM) and the IC50 [2] was 620 µg/mL (≈ 2010 µM).
`CCCON=C1CC(=NOCCC)c2ccccc2-c2ccccc21` [Example 4, 5,7-Bis(n-Propoxyimino)-6,7-Dihydro-(5H)-Dibenzo[a,c]Cycloheptene] showed an IC50 [1] of 420 µg/mL (≈ 1250 µM) and an IC50 [2] of 600 µg/mL (≈ 1780 µM).
Work on `N#CCCCON=C1CC(=NOCCCC#N)c2ccccc2-c2ccccc21` [Example 5, 5,7-Bis(3-Cyanopropoxyimino)-6,7-Dihydro-(5H)-Dibenzo[a,c]Cycloheptene] yielded an IC50 [1] of 650 µg/mL (≈ 1680 µM) and an IC50 [2] of 420 µg/mL (≈ 1090 µM).
For `CC(C)(C)ON=C1CC(=NOC(C)(C)C)c2ccccc2-c2ccccc21` [Example 6, 5,7-Bis(Tert.-Butoxyimino)-6,7-Dihydro-(5H)-Dibenzo[a,c]Cycloheptene], the IC50 [1] was 600 µg/mL (≈ 1650 µM) and the IC50 [2] was 460 µg/mL (≈ 1260 µM).
With `c1ccc2c(c1)C(=NOCC1CCCCC1)CC(=NOCC1CCCCC1)c1ccccc1-2` [Example 7, 5,7-Bis(Cyclohexylmethoxyimino)-6,7-Dihydro-(5H)-Dibenzo[a,c]Cycloheptene] the IC50 [1] was 600 µg/mL (≈ 1350 µM) and the IC50 [2] was 600 µg/mL (≈ 1350 µM).
`c1ccc(CON=C2CC(=NOCc3ccccc3)c3ccccc3-c3ccccc32)cc1` [Example 8, 5,7-Bis(Benzyloxyimino)-6,7-Dihydro-(5H)-Dibenzo[a,c]Cycloheptene] was tested, and the IC50 [1] was 800 µg/mL (≈ 1850 µM) and the IC50 [2] was 650 µg/mL (≈ 1500 µM).
`c1ccc(CCON=C2CC(=NOCCc3ccccc3)c3ccccc3-c3ccccc32)cc1` [Example 9, 5,7-Bis(2-Phenylethoxyimino)-6,7-Dihydro-(5H)-Dibenzo[a,c]Cycloheptene] showed an IC50 [1] of 600 µg/mL (≈ 1300 µM) and an IC50 [2] of 600 µg/mL (≈ 1300 µM).
`CCOC(=O)CON=C1CC(=NOCC(=O)OCC)c2ccccc2-c2ccccc21` [Example 10, 5,7-Bis(Ethoxycarbonylmethoxyimino)-6,7-Dihydro-(5H)-Dibenzo[a,c]Cycloheptene] gave an IC50 [1] of 650 µg/mL (≈ 1530 µM) and an IC50 [2] of 400 µg/mL (≈ 942 µM).
In the case of `CC(C)(C)OC(=O)CON=C1CC(=NOCC(=O)OC(C)(C)C)c2ccccc2-c2ccccc21` [Example 11, 5,7-Bis(Tert.-Butoxycarbonylmethoxyimino)-6,7-Dihydro-(5H)-Dibenzo[a,c]Cycloheptene], the IC50 [1] is reported as 320 µg/mL (≈ 666 µM) and the IC50 [2] is reported as 200 µg/mL (≈ 416 µM).
`CCOC(=O)CCCON=C1CC(=NOCCCC(=O)OCC)c2ccccc2-c2ccccc21` [Example 12, 5,7-Bis(Ethoxycarbonylpropoxyimino)-6,7-Dihydro-(5H)-Dibenzo[a,c]Cycloheptene] was tested, and the IC50 [1] was 670 µg/mL (≈ 1390 µM) and the IC50 [2] was 450 µg/mL (≈ 936 µM).
`O=C(O)CON=C1CC(=NOCC(=O)O)c2ccccc2-c2ccccc21` [Example 13, 5,7-Bis(Hydroxycarbonylmethoxyimino)-6,7-Dihydro-(5H)-Dibenzo[a,c]Cycloheptene] showed an IC50 [1] of 450 µg/mL (≈ 1220 µM) and an IC50 [2] of 400 µg/mL (≈ 1090 µM).
For `Cl.Cl.c1cncc(CON=C2CC(=NOCc3cccnc3)c3ccccc3-c3ccccc32)c1` [Example 14, 5,7-Bis(pyridin-3-ylmethoxyimino)-6,7-dihydro-(5H)-dibenzo[a,c]cycloheptene dihydrochloride], the IC50 [1] was 600 µg/mL, the “inhibitory effect on isolated guinea-pig intestine” value [3] was “still substantial” and the IC50 [2] was 460 µg/mL.
In the case of `Cl.Cl.c1ccc2c(c1)C(=NOCCN1CCCCC1)CC(=NOCCN1CCCCC1)c1ccccc1-2` [Example 20, 5,7-Bis(Piperidin-1-ylethoxyimino)-6,7-Dihydro-(5H)-Dibenzo[a,c]Cycloheptene Dihydrochloride], the “inhibition of platelet aggregation compared with aspirin” value (from here on “inhibition … compared with aspirin”) [4] is reported as “comparable or even superior to aspirin”, the IC50 [1] is reported as 120 µg/mL and the IC50 [2] is reported as 80 µg/mL.
For `CCN(CC)CCON=C1c2ccccc2C(=NOCCN(CC)CC)C1c1ccccc1` (stereo not shown) [Example 21, 1,3-Bis(2-Diethylaminoethoxyimino)-2-Phenyl-(1H)-Indene-(2H) Dihydrochloride], the “inhibition … compared with aspirin” value [4] was “comparable or even superior to aspirin”, the IC50 [1] was 40 µg/mL and the IC50 [2] was 24 µg/mL.
In the case of `CCN(CC)CCON=C1CC(=NOCCN(CC)CC)c2ccccc21` [Example 22, 1,3-Bis(2-Diethylaminoethoxyimino)-(1H)-Indene-(1H) Dihydrochloride], the IC50 [1] is reported as 145 µg/mL, the “inhibitory effect on isolated guinea-pig intestine” value [3] is reported as “still substantial” and the IC50 [2] is reported as 160 µg/mL.
In the case of `c1ccc2c(c1)C(=NOCCN1CCOCC1)CC2=NOCCN1CCOCC1` [Example 23, 1,3-Bis(2-Morpholinoethoxyimino)-(1H)-Indene-(2H) Dihydrochloride], the IC50 [1] is reported as 350 µg/mL and the IC50 [2] is reported as 420 µg/mL.
In the case of `c1ccc(C2C(=NOCCN3CCOCC3)c3ccccc3C2=NOCCN2CCOCC2)cc1` (stereo not shown) [Example 24, 1,3-Bis(2-Morpholinoethoxyimino)-2-Phenyl-(1H)-Indene-(2H) Dihydrochloride], the “inhibition … compared with aspirin” value [4] is reported as “comparable or even superior to aspirin”, the IC50 [1] is reported as 340 µg/mL and the IC50 [2] is reported as 210 µg/mL.
With `c1ccc(C2C(=NOCCN3CCCCC3)c3ccccc3C2=NOCCN2CCCCC2)cc1` (stereo not shown) [Example 25, 1,3-Bis(2-Piperidin-1-ylethoxyimino)-2-Phenyl-(1H)-Indene-(2H) Dihydrochloride] the “inhibition … compared with aspirin” value [4] was “comparable or even superior to aspirin”, the IC50 [1] was 38 µg/mL and the IC50 [2] was 20 µg/mL.
With `COc1ccc(C2C(=NOCCN3CCCCC3)c3ccccc3C2=NOCCN2CCCCC2)cc1` (stereo not shown) [Example 26, 1,3-Bis(2-Piperidin-1-ylethoxyimino-2-(4-Methoxyphenyl-(1H)-Indene-(2H) Dihydrochloride] the “inhibition … compared with aspirin” value [4] was “comparable or even superior to aspirin”, the IC50 [1] was 24 µg/mL and the IC50 [2] was 18 µg/mL.
For `CCN(CC)CCON=C1c2ccccc2C(=NOCCN(CC)CC)C1c1ccc(Cl)cc1` (stereo not shown) [Example 27, 1,3-Bis(2-Diethylaminoethoxyimino)-2-(4-Chlorophenyl)-(1H)-Indene-(2H) Dihydrochloride], the “inhibition … compared with aspirin” value [4] was “comparable or even superior to aspirin”, the IC50 [1] was 40 µg/mL and the IC50 [2] was 28 µg/mL.
For `CCN(CC)CCON=C1c2ccccc2C(=NOCCN(CC)CC)C1c1ccc(C)cc1` (stereo not shown) [Example 28, 1,3-Bis(2-Diethylaminoethoxyimino)-2-(4-Methylphenyl)-(1H)-Indene-(2H) Dihydrochloride], the “inhibition … compared with aspirin” value [4] was “comparable or even superior to aspirin”, the IC50 [1] was 62 µg/mL and the IC50 [2] was 40 µg/mL.
In the case of `CCN(CC)CCON=C1c2ccccc2C(=NOCCN(CC)CC)C1c1ccc2c(c1)OCO2` (stereo not shown) [Example 29, 1,3-Bis(2-Diethylaminoethoxyimino)-2-(3,4-Methylenedioxyphenyl)-(1H)-Indene-(2H) Dihydochloride], the “inhibition … compared with aspirin” value [4] is reported as “comparable or even superior to aspirin”, the IC50 [1] is reported as 110 µg/mL (≈ 222 µM) and the IC50 [2] is reported as 100 µg/mL (≈ 202 µM).
For `CCOC(=O)CON=C1c2ccccc2C(=NOCC(=O)OCC)C1c1ccccc1` (stereo not shown) [Example 30, 1,3-Bis(Ethoxycarbonylmethoxyimino)-2-Phenyl-(1H)-Indene-(2H)], the “inhibition … compared with aspirin” value [4] was “comparable or even superior to aspirin”, the IC50 [1] was 150 µg/mL (≈ 353 µM) and the IC50 [2] was 210 µg/mL (≈ 495 µM).
`O=C(O)CON=C1c2ccccc2C(=NOCC(=O)O)C1c1ccccc1` (stereo not shown) [Example 31, 1,3-Bis(Hydroxycarbonylmethoxyimino)-2-Phenyl-(1H)-Indene-(2H)] was tested, and the IC50 [1] was 250 µg/mL (≈ 679 µM).
For `CCN(CC)CCON=C1c2ccccc2-c2ccccc2C(=NOCCN(CC)CC)C1c1ccccc1.Cl.Cl` (stereo not shown) [Example 32, 5,7-Bis(2-Diethylaminoethoxyimino)-6-Phenyl-6,7-Dihydro-(5H)-Dibenzo[a,c]Cycloheptene Dihydrochloride], the “inhibition … compared with aspirin” value [4] was “comparable or even superior to aspirin”, the IC50 [1] was 20 µg/mL and the IC50 [2] was 18 µg/mL.
For `CCN(CC)CCON=C1c2ccccc2-c2ccccc2C(=NOCCN(CC)CC)C1c1ccc(F)cc1.Cl.Cl` (stereo not shown) [Example 33, 5,7-Bis(2-Diethylaminoethoxyimino)-6-(4-Fluorophenyl)-6,7-Dihydro-(5H)-Dibenzo[a,c]Cycloheptene Dihydrochloride], the “inhibition … compared with aspirin” value [4] was “comparable or even superior to aspirin”, the IC50 [1] was 12 µg/mL and the IC50 [2] was 22 µg/mL.
`CCN(CC)CCON=C1c2ccccc2-c2ccccc2C(=NOCCN(CC)CC)C1c1ccc(Cl)cc1.Cl.Cl` (stereo not shown) [Example 34, 5,7-Bis(2-Diethylaminoethoxyimino)-6-(4-Chlorophenyl)-6,7-Dihydro-(5H)-Dibenzo[a,c]Cycloheptene Dihydrochloride] was tested, and the “inhibition … compared with aspirin” value [4] was “comparable or even superior to aspirin”, the IC50 [1] was 40 µg/mL and the IC50 [2] was 24 µg/mL.
For `CCN(CC)CCON=C1c2ccccc2-c2ccccc2C(=NOCCN(CC)CC)C1c1ccc(OC)cc1.Cl.Cl` (stereo not shown) [Example 35, 5,7-Bis(Diethylaminoethoxyimino)-6-(4-Methoxyphenyl)-6,7-Dihydro-(5H)-Dibenzo[a,c]Cycloheptene Dihydrochloride], the “inhibition … compared with aspirin” value [4] was “comparable or even superior to aspirin”, the IC50 [1] was 25 µg/mL and the IC50 [2] was 16 µg/mL.
